Test results taken from a melting point compilation (Tetko et al.).

Structure (SMILES)	melting point [°C]
Cc1[nH]c2ccnn2c(=O)c1CC(=O)O	293 to 295
CSCCC(NS(=O)(=O)c1ccccc1)C(=O)O (centres undefined)	103 to 105
Cc1ccc(S(=O)(=O)N2CCCCC2)cc1NC(=O)CCl	107 to 109
N#Cc1c(-c2ccccc2)nc(S)[nH]c1=O	327 to 329
OCc1ccc2cn[nH]c2c1	158 to 160
NNc1ccc(S(=O)(=O)NC2CCCCCCC2)cn1	140 to 142
CCOc1cc(C(=O)O)ccc1OCc1cccnc1	185 to 187
CN1CC(=O)Nc2cc(C(=O)O)ccc21	322 to 324
COC(=O)CC1=NC(=O)CS1	184 to 186
N#CCc1nc(-c2c(F)cccc2F)cs1	75 to 77
CC(=O)Nc1cc2c(cc1C)OCO2	164 to 166
COC(=O)c1ccc(C=O)[nH]1	99 to 101
CN1CCC(C(=O)O)CC1=O (centres undefined)	163 to 165
COc1ccc(C(C)(C)O)c(OCc2ccccc2)c1	47 to 49
BrCCC12CC3CC(CC(C3)C1)C2	56 to 58
C=CC(=O)Nc1cccc(Cl)c1	106 to 108
O=C(c1ccc(F)cc1F)N1CCCNCC1	93 to 95
NCc1ccc(-c2ccc3c(c2)CCCO3)cc1	89 to 91
CS(=O)(=O)Nc1ccc(S(=O)(=O)Cl)c(F)c1	149 to 151
COc1ccc(S(=O)(=O)N2CCC(=O)CC2)cc1	126 to 128
Cc1cccc(NC(=S)NN)c1C	170 to 172
O=C(O)C1(Br)CCC1	40 to 42
CC(C)(C)OC(=O)N1CCC(COS(C)(=O)=O)CC1	84 to 86
Nc1onc(-c2ccc(Br)s2)c1-c1ccc(F)cc1	141 to 143

Structure (SMILES)	melting point [°C]
CCOc1ccc(S(=O)(=O)Nc2ccc(C(=O)O)cc2)cc1	226 to 228
Nc1cccc(S(=O)(=O)Nc2ccccc2C(=O)O)c1	198 to 200
CCOC(Cn1cc(C(=O)O)nn1)OCC	138 to 140
CC1(c2ccccc2Br)NC(=O)NC1=O (centres undefined)	219 to 221
CCOC(=O)Cc1csc(NC(=O)OCC(F)(F)F)n1	120 to 122
CC(C)(C(=O)O)c1cccs1	78 to 80
Cc1ccc(-c2nc(CC(=O)O)cs2)cc1	139 to 141
Clc1cc(N2CCNCC2)ncn1	100 to 102
Clc1nc(C2CC2)nc2scc(-c3ccccc3)c12	77 to 79
Nc1cc2ccccc2c(=O)[nH]1	319 to 321
N#CCC(=O)c1ccc(Br)s1	143 to 145
CC(C)c1ccc(-c2nn(-c3ccccc3)cc2C(=O)O)cc1	222 to 224
c1ccc2[nH]c(C3CCNCC3)nc2c1	253 to 255
O=C(O)Cc1ccc(S(=O)(=O)N2CCOCC2)s1	116 to 118
O=C(O)CCn1cc(Cl)cn1	91 to 93
CS(=O)c1ccccc1C(=O)O (centres undefined)	130 to 135
CCCc1noc2nc(-c3ccco3)cc(C(=O)O)c12	204 to 206
CN1C(=O)CCC(C(N)=O)C1c1cnn(C)c1 (centres undefined)	185 to 187
O=C(O)c1ccc(Sc2ccc(Cl)cc2)cc1	203 to 205
COc1ccc(NC(=O)Nc2ccc(OC)nc2)cn1	215 to 217
O=C(O)C1CCCN1C(=O)Cc1cn2ccsc2n1 (centres undefined)	121 to 123
CC(Cl)C(=O)Nc1ccccc1C(=O)NCc1ccco1 (centres undefined)	102 to 104
CC(C)NS(=O)(=O)C1CCNC1 (centres undefined)	104 to 106
Sc1nnc(C2COc3ccccc3O2)o1 (centres undefined)	151 to 155

Structure (SMILES)	melting point [°C]
CN(C)S(=O)(=O)c1ccc2[nH]c(=O)c(=O)[nH]c2c1	319 to 321
O=C(O)Cc1csc(-c2ncccn2)n1	173 to 175
CC1C(=O)NCCN1C(=O)c1cccs1 (centres undefined)	129 to 131
CC(C)C(=O)Nc1ccc(C(=O)O)cc1	240 to 242
CC(=O)N1Cc2ccc(N)cc2C1	169 to 171
O=c1ccc(Cl)n[nH]1	138 to 140
O=C(Nc1ccccn1)c1ccc(Br)cc1	134 to 136
Cc1cc(OC(C)C(=O)O)ccc1Cl (centres undefined)	87 to 89
O=Cc1sc2ccccc2c1Cl	104 to 106
C=CS(=O)(=O)c1ccc(C(C)(C)C)cc1	91 to 93
Cc1cccc(C(=O)Nc2ccc(O)cc2)c1	158 to 160
NS(=O)(=O)c1ncccn1	173 to 175
O=C(O)CCC(=O)Nc1sc2c(c1C(=O)NCC1CCCO1)CCCC2 (centres undefined)	151 to 153
O=C1NCC(Br)C(=O)N1 (centres undefined)	200 to 202
N#Cc1ccc(OCc2ccccc2)nc1	71 to 73
Nc1ccnn1Cc1ccncc1	219 to 221
Cn1cnc2c(Br)cccc21	101 to 103
Nc1[nH]ncc1-c1nc2cc(Cl)ccc2s1	274 to 276
CSc1cc(Br)ccc1C=O	81 to 83
Nc1nnc(CCc2ccccc2)o1	195 to 197
O=C(O)/C=C/c1ccc(F)cc1[N+](=O)[O-]	176 to 178
CC(C)N1C2CCC1CC(O)C2 (centres undefined)	90 to 92
CN1CN=C(S)NC1	173 to 177
COc1cc(F)c(S(=O)(=O)Cl)cc1OC	82 to 84

Structure (SMILES)	melting point [°C]
CCOC(=O)/C(C#N)=C\Nc1cc(C)ccc1OC	131 to 133
Oc1cccc2c1NCCC2	116 to 118
O=C(CC(=O)Nc1ccccc1F)Nc1ccccc1F	158 to 160
Cc1ccc(N2CCCC2)c(C(=O)O)c1	124 to 126
CC(Oc1cccc(C#N)c1)C(=O)O (centres undefined)	110 to 112
O=C(O)C1=NN(c2ccc(Cl)cc2)C(=O)CC1	161 to 163
CN1CCN(c2ccc(C(F)(F)F)cc2N)CC1	178 to 180
NS(=O)(=O)c1ccc(/C=C/C(=O)O)cc1	274 to 276
Cc1cccc(-c2[nH]ncc2C=O)c1	55 to 57
CCc1ccccc1OCC(=O)NN	107 to 109
Cc1cc(C(=O)NCC(C)C)ccc1N	91 to 93
CC1Cc2c(Br)cccc2C(=O)N1 (centres undefined)	135 to 137
O=C(O)C(NC1CC1)c1cc(Br)cs1 (centres undefined)	155 to 157
O=C(O)[C@@H]1CCCN1C(=O)NCc1cccc(Br)c1	146 to 148
Cn1c2ccccc2n2c(S)nnc12	270 to 272
NNC(=O)N1CCOCC1	121 to 123
Cc1nnc2c(Cl)nccn12	212 to 214
O=c1[nH]c(CCl)nc2cc(C(F)(F)F)ccc12	209 to 211
CCCOc1ccc(C=CC(=O)O)cc1OC	187 to 189
CC(=O)Oc1ccc(C(=O)O)cc1OC(C)=O	159 to 161
COc1ccc(CCC(=O)O)cc1O	149 to 151
COc1ccc2c(c1)NC(=O)C2O (centres undefined)	189 to 191
CC(C(=O)Nc1ccc(N)cc1)n1cncn1 (centres undefined)	202 to 204
c1cc(OCC2CO2)c2cc[nH]c2c1 (centres undefined)	52 to 54

Structure (SMILES)	melting point [°C]
O=CC(Br)C=O	132 to 134
c1ccc(N2CCN(CC3CCCNC3)CC2)nc1 (centres undefined)	73 to 75
CN(C)c1ccc(C(=O)O)nn1	167 to 169
Cc1ccsc1-c1nnc(N)o1	147 to 149
Nc1nc2ccccc2nc1N1CCCC1	149 to 151
CC(C)(C)C1CCc2c(sc3nc(S)nc(S)c23)C1 (centres undefined)	301 to 303
Cc1c(F)ccc2sc(N)nc12	174 to 176
CC(C)NS(=O)(=O)c1ccc(NN)nc1	141 to 143
Cc1ccccc1-c1csc(=O)[nH]1	123 to 125
CC(C)(C)S(=O)(=O)c1ccc(Br)cn1	116 to 118
Cc1ccnc(NC(=O)C2CCNCC2)c1	134 to 136
O=c1n(CCCO)nc2ccccn12	81 to 83
O=C(O)C(CS(=O)(=O)c1ccccc1)N1CCOCC1 (centres undefined)	190 to 192
COc1ccc(C=O)cc1OCCCC#N	72 to 74
Nc1ccc(S(=O)(=O)NCc2ccc(F)cc2)cc1	136 to 138
CC(C)NC(=O)NC(=O)CCl	86 to 88
COc1cc(C(C)=O)ccc1S	58 to 60
O=C1NC2(CCCC2)C(=O)N1Cc1ccc(Cl)nc1	169 to 171
N#CCN1CCc2ccc(N)cc21	87 to 89
CS(=O)Cc1cc(N)ccc1Cl (centres undefined)	200 to 202
NC(=S)NCCc1ccccn1	94 to 98
CC(=O)Nc1ccc(S(=O)(=O)N2CCC(=O)CC2)cc1	145 to 147
O=C(O)c1cnn(-c2ccccc2)n1	183 to 185
C/C(=N\Nc1ccc(Cl)c(C(=O)O)c1)c1ccc(Br)cc1	180 to 182

Structure (SMILES)	melting point [°C]
Nc1cc(C2CC2)nn1-c1ncccn1	144 to 146
COc1cc(C=O)c([N+](=O)[O-])cc1O	207 to 209
O=C(O)c1nnn(-c2cccc(F)c2)c1C1CC1	149 to 151
Cc1cc(C(=O)O)c(C)n1Cc1ccccc1	196 to 200
CCCCc1ccc(NC2=NCCCS2)cc1	70 to 72
CCC(CC)n1nc(C)cc1C(=O)O	149 to 151
Cc1nc(S)sc1CC(=O)O	205 to 207
c1c[nH]c(CN2CCNCC2)n1	153 to 155
NNc1ccc(S(=O)(=O)N2CCCCC2)cn1	186 to 188
Cc1cc(S(=O)(=O)Nc2ccccc2C(=O)O)ccc1F	65 to 68
CCOC(=O)c1cc(F)c(F)cc1N	82 to 84
Nc1nc2ccc(Br)cc2s1	119 to 121
Cc1cc(C(=O)CCl)c(Cl)cc1F	36 to 38
c1ccc(C2NCCn3cccc32)cc1 (centres undefined)	72 to 74
O=S1(=O)Nc2ncnn2-c2ccccc21	284 to 286
CC(N)CCc1ccc(O)cc1 (centres undefined)	111 to 113
Cc1cc(C(=O)Cl)sc1C	59 to 61
CSc1ccsc1C(=O)O	194 to 196
O=C(O)CNC(=O)c1cccc(OCc2ccccc2)c1	185 to 187
O=C(O)c1cnn(-c2ncccc2Cl)c1C(F)(F)F	149 to 151
NNC(=O)CC1CCS(=O)(=O)C1 (centres undefined)	104 to 106
CCN1CCN(S(=O)(=O)c2ccc(CCC(=O)O)cc2)CC1	239 to 241
COC(=O)c1ccc(Cl)c(S(=O)(=O)Cl)c1	103 to 105
CN(C)S(=O)(=O)c1cccc(C(=O)NCC(=O)O)c1	172 to 176
